Test results reported in patent US4216209A, “Tripeptide angiotensin converting enzyme inhibitors” (American Home Products Corporation, priority 1979, dated 1980).
Non-standard residues stand in square brackets, D forms with d. Residues, ends and D or L forms follow the SMILES beside them. Mpa = O=C(O)CCS

Tested on: spontaneously hypertensive rat (SHR)
Test: Antihypertensive test in conscious spontaneously hypertensive rats: arterial BP and pressor/depressor responses to i.v. angiotensin I and bradykinin after oral dosing
Assay type: in vivo
Details: male SHR, 50 mg/kg of body weight
Excerpt: Male SHR of the Okamoto-Aoki strain (purchased from Charles River Lakeview, Boston, Mass.) ranging in weight between 280 and 370 g are anesthetized with diethyl ether. Their left femoral arteries and veins are cannulated with polyethylene tubing of the appropriate size. Each animal is then placed in a rubber mesh jacket which is secured with four towel clamps. The animal is suspended via the towel clamps from a bar and allowed to recover from the anesthesia. The arterial cannula is connected to a Statham pressure transducer (Model P23, Gould Statham Instruments, Hato Rey, Porto Rico) which, in turn, is attached to a polygraph for recording arterial blood pressure (BP) and pulse rate.
When the BP has stabilized, the intravenous injection of the agonists, angiotensin I (AI) or bradykinin (B) is initiated. Each of the agonists is prepared daily from refrigerated stock solution (using distilled water as the diluent), and injected in a volume of 1 ml/kg (using physiological saline as the diluent) at the following doses: AI, 0.125 μg/kg and B, 5 μg/kg.
Enough time is allowed for the BP to return to preinjection levels before the next agonist is given. A dose of the compound to be tested is given orally seven to ten minutes after the injection of the last agonist. Four rats are used and the test compound is given by gastric gavage in a volume of 5 ml/kg of body weight. Heart rate and BP are measured at 5, 10, 15, 30, 45 and 60 minutes and at hourly intervals thereafter for a period of at least four hours after drug administration. At one and two hours after the test compound has been given, AI and B are injected again at the same concentration and in the same order as during the control period.

CC(C)C[C@H](NC(=O)[C@H](Cc1c[nH]cn1)NC(=O)[C@@H]1CCCN1C(=O)CCS)C(=O)O [N-[N-[1-(3-Mercapto-1-oxopropyl)prolyl]histidyl]leucine] ([Mpa]PHL-OH)
decrease in mean arterial BP (oral (gastric gavage), measured two hours after administration): 8%
reduction in angiotensin I response on BP (oral, angiotensin I 0.125 μg/kg i.v.): 61%
potentiation of bradykinin response (oral, bradykinin 5 μg/kg i.v.): 564%
